These results are taken from patent US20130253020A1, “Treatment of Degenerative Disc Diseases” (priority 2012, published 2013).

Test [1] has as its system advanced glycation end-products (AGEs) in nucleus pulposus (NP) tissues. Nature of the test: AGEs in NP disc tissue: autofluorescence of acid hydrolysates divided by collagen content, after thiazolium salt incubation. More on the design: species or system human. Conditions: 4 days. As for the experimental part: Eleven lumbar spines (T12/L1-L5/S1) were collected fresh frozen cadavers consisting of 5 males and 6 females with a mean age of 82.5 years ±10.2. The cross-sections of the lumbar disc were visually categorized into Thompson grades 1 to 5 and corroborated with fluoroscopic imaging. The grade 1 (“Control”) and grade 5 (“Degenerate”) discs were used (total 27 discs). The discs were separated into annulus fibrosus (AF) and nucleus pulposus (NP) tissues. The Control discs were tested mechanically and then divided to undergo 0, 2, 4, 8, and 10 days of ribosylation in 0.6M ribose at 37° C. The treated Control discs, along with the degenerated discs were then tested mechanically using a dynamic microindentation device in 0.15M PBS at 20° C. using the Biopent 1000 reference point indentation system (Active Life Scientific, CA). A 1.47 mm diameter cylindrical probe cyclically indented the tissue to a depth of 300 μm at 1 Hz to generate a force displacement curve. Three distinct sites per AF/NP were measured and averaged between the sites. The resulting force-deformation curves, accounting for the probe geometry, were used to compute elastic modulus and tan δ.
Following mechanical measurements, the O-day and 4-day treated Control NP tissues were incubated in 0.15M of a thiazolium salt known to cleave AGEs products (Oturai P S, Christensen M, Rolin B, Pedersen K E, Mortensen S B, Boel E. Effects of advanced glycation end-product inhibition and cross-link breakage in diabetic rats. Metab Clin Exp 2000:49:996-1000.) for 4 days. […] Following the second incubation, all tissues were mechanically assessed again, and then subjected to acid hydrolysis by 6N hydrochloric acid (16 hours, 110C). The collagen crosslinking by AGEs, a sugar-derived posttranslational modification of amino acids, was quantified by measuring the autofluorescence of the acid hydrolysates at […] and divided by collagen content (Monnier V M, Kohn R R, Cerami A. Accelerated age-related browning of human collagen in diabetes mellitus. Proc Natl Acad Sci USA 1984; 81:583-587). […]

In test [2] the test system is nucleus pulposus (NP) tissues. Nature of the test: Dynamic microindentation of NP tissue (indentation modulus, tan δ) after thiazolium salt incubation. More on the design: species or system human. Conditions: ribosylated or degenerated, thiazolium salt solution 4 days, FIG. 2. As for the experimental part:
Eleven lumbar spines (T12/L1-L5/S1) were collected fresh frozen cadavers consisting of 5 males and 6 females with a mean age of 82.5 years ±10.2. The cross-sections of the lumbar disc were visually categorized into Thompson grades 1 to 5 and corroborated with fluoroscopic imaging. The grade 1 (“Control”) and grade 5 (“Degenerate”) discs were used (total 27 discs). The discs were separated into annulus fibrosus (AF) and nucleus pulposus (NP) tissues. The Control discs were tested mechanically and then divided to undergo 0, 2, 4, 8, and 10 days of ribosylation in 0.6M ribose at 37° C. […] Three distinct sites per AF/NP were measured and averaged between the sites. […]
Following mechanical measurements, the O-day and 4-day treated Control NP tissues were incubated in 0.15M of a thiazolium salt known to cleave AGEs products (Oturai P S, Christensen M, Rolin B, Pedersen K E, Mortensen S B, Boel E. Effects of advanced glycation end-product inhibition and cross-link breakage in diabetic rats. Metab Clin Exp 2000:49:996-1000.) for 4 days. […] Following the second incubation, all tissues were mechanically assessed again, and then subjected to acid hydrolysis by 6N hydrochloric acid (16 hours, 110C). […]

Test [3] relates to primary spine disc cells. Nature of the test: mRNA expression of inflammatory cytokines and r-AGEs in primary spine disc cells exposed to AGEs. In kind it is cell-based, human and bovine. Conditions: FIG. 3. The source says: Primary spine disc cells were isolated from both human and bovine spine discs. The tissues were digested using a cocktail containing collagenase P, trypsin, and other enzymes to release the primary cells embedded within the tissues (Neidlinger-Wilke C, Liedert A, Wuertz K, Buser Z, Rinkler C, Käfer W, et al. Mechanical stimulation alters pleiotrophin and aggrecan expression by human intervertebral disc cells and influences their capacity to stimulate endothelial migration. Spine 2009; 34:663-669). These cells were then conditioned and allowed to expand for 3 passages. After conditioning in normal cell culture media, the cells were exposed to several conditions: Control, bovine serum albumin, and AGEs. The treatments were dissolved directly in the cell culture media and then the cells were subjected to these conditions for 24 hours. Messenger ribose nucleic acids (mRNA) were then extracted from these cells and amplified into respective complimentary deoxyribose nucleic acids (cDNA). The cDNA sequences were tested for the normalized expression (normalized to the housekeeping gene, GAP-DH) of Interleukin (IL)-4, IL-6 (both of which initiate the inflammatory pain response), and the Receptor-for Advanced Glycation End-products (r-AGEs). The normalized expressions compared to the controls were computed by the delta-delta CT method.

On to `O=C(C[n+]1ccsc1)c1ccccc1.[Br-]` [PTB, N-phenacyl thiazolium bromide], for which the “AGEs in NP disc tissue” value in test [1] (Grade 1 (Control) NP tissue, 0.15M PTB solution) is on record as “significant reductions”. The “AGEs in NP disc tissue” value in test [1] (Grade 5 (Degenerate) NP tissue, 0.15M PTB solution) was “significant reductions”. Besides, the “AGEs in NP disc tissue” value in test [1] (Grade I+Ribosylation NP tissue (4-day ribosylation), 0.15M thiazolium salt) is reported as “significant reductions”. The “mechanical properties of NP tissue (indentation modulus, tan δ)” value in test [2] was “rescuing effect”. Also, the “cellular inflammatory response, marked by the cytokines IL-4 and IL-6” value in test [3] (concurrent administration with AGEs in cell culture media, 24 hours) is listed as “suppresses this response”. Also, in test [3] (primary spinal disc cells), the Interleukin-1 expression entry is “decrease”, the Interleukin-6 expression entry is reported as “decrease” and the “expression of the Receptor-for-Advanced Glycation End-Products” value is given as “reduction”.
